# Test: Autohydrolysis of ε-CL (pH-STAT titration)
# Type: physicochemical
# Settings: Distilled water (pH 7.0), 30 °C, based on 100 mM ε-CL as 100 %
# Experimental: All measurements were done with the 877 Titrino Plus from Metrohm (Filderstadt, Germany).
# Using the pH-STAT, the autohydrolysis of ε-CL at different temperatures and pH values was determined. Furthermore, it was investigated whether CAL-A is able to hydrolyze ε-CL in an aqueous reaction system. The Bacillus subtilis esterase 2 (BS2) served as positive control in the hydrolysis of ε-caprolactone to 6-hydroxycaproic acid leading to a measureable pH change in the pH-STAT.
# For the determination of autohydrolysis, 100 mM ε-CL (Sigma-Aldrich, St- Louis, United States; 97 % purity) were dissolved in 20 ml Tris-HCl buffer (20 mM, pH 7.5) or 20 ml distilled water. The measurement was carried out at 25°C and 30°C over 15 min. For titration, 0.1 N NaOH was used to maintain the pH value constant.
compound,measurement,value
"O=C1CCCCCO1 [ε-CL, ε-caprolactone]",Conversion [%] (autohydrolysis),"1.075 ± 0,00090%"
